The text below walks through data of paper PMC4666608, “Metabolic Profiling of Chicken Embryos Exposed to Perfluorooctanoic Acid (PFOA) and Agonists to Peroxisome Proliferator-Activated Receptors” (PLoS ONE, 2015).

Values joined by “and” are separate entries in the source; they are usually repeats but may differ in a detail not shown here. Equal entries are not always repeated. Where two headings read alike, the source gives them in different places.

Data set [1] concerns chicken embryos. The data set can be described thus: Plasma lipids (total, LDL, HDL cholesterol, triacylglycerols), photometric. The conditions noted are these: for HDL-C in plasma, mean ± SD / LDL-C in plasma, mean ± SD / LDL/HDL in plasma, mean ± SD / Total cholesterol in plasma, mean ± SD / Triacylglycerols in plasma, mean ± SD: E12; for LDL/HDL: plasma. On the procedure:
(§1) The experimental procedures in this study were approved by the Uppsala Ethical Committee for Research on Animals (Permit number C 211/12). Fertilized chicken eggs (Gallus gallus domesticus) were obtained from a local breeder (Ova Production AB, Vittinge, Sweden). The egg weights were 60 ± 4 g (mean and standard deviation). The eggs were incubated at 37.5°C and 60% relative humidity with automatic turning every six hours. The day the eggs were placed in the incubator was defined as embryonic day zero (E0). Chicken embryos were exposed to test substances by air sac injection in eggs incubated for seven days (E7). At this stage, the extraembryonic allantoic blood vessel network has grown to cover the inner shell membrane beneath the air sac and the injected substance will come in direct contact with the vascular network. The exposures were performed as follows: Unfertilized eggs and poorly developing embryos were recognized by candling and were sorted out. Eggs with embryos of normal size were collected and randomly distributed into the different treatment groups. On E7, the blunt end of each egg was wiped with alcohol and a small hole was drilled through the shell above the air sac. The dissolved test substance (20 μl) was deposited onto the inner shell membrane in the air sac and the hole was sealed with melted paraffin wax. Following injection, eggs were held horizontally and rotated for a few seconds to allow dispersal over the inner shell membrane in the air sac. Each egg was marked with a number specifying the treatment group and was placed at a random location in the incubator.
(§2) The doses were 150 μg/egg (approximately 2.5 mg/kg egg) for GW7647 and rosiglitazone and 50, 250 or 1000 μg/egg for PFOA (approximately 0.83, 4.2 and 18 mg/kg egg, respectively). Controls were injected with 20 μL vehicle only (DMSO). Due to the large number of embryos required, the experiment was divided into four replicate experiments (replicate A-D) performed the same way but on separate occasions. The number of exposed embryos was 10–15 for each treatment group and replicate.
A subset of randomly chosen embryos from each group (except the 1000 μg/egg group) was sampled for metabolomic analysis of allantoic fluid and blood plasma. Samples of allantoic fluid and blood were collected before decapitation and dissection of the embryo as described below. The egg shell was removed above the air cell without disrupting the inner shell membrane. Allantoic fluid was collected by gently inserting a needle through the inner shell membrane and into the allantoic sac and then aspiring the fluid with a syringe. The samples were placed in microtubes on ice during sampling and then stored at -70°C until processed for metabolomic analysis. Blood was collected from the allantoic artery, just proximal to its first branch. The artery was gently cleaned from membranes, lifted with a small spoon and then punctured with a needle. Blood flowing into the spoon was immediately collected with heparinized capillaries. Blood was stored in heparinized microtubes on ice during sampling and was then centrifuged at a speed of 1300g for 10 min at 4°C. Plasma was collected and stored at -70°C. The embryos were killed by decapitation and dissected immediately following blood sampling.
Total cholesterol, low-density lipoprotein (LDL) cholesterol, high-density lipoprotein (HDL) cholesterol, and triacylglycerols in plasma were analyzed with an Architect c8000 (Abbott Diagnostics, Abbott Park, IL, USA), using a photometric method, at the department of Clinical Chemistry and Pharmacology, Uppsala University Hospital, Sweden. The laboratory is accredited according to EN/ISO 15189 medical laboratory requirements. A total of 80 samples were analyzed; control: 7 females and 8 males; GW7647: 7 females and 8 males; rosiglitazone: 5 females and 12 males; 50 μg PFOA/egg: 11 females and 6 males; 250 μg PFOA/egg: 10 females and 6 males.

Another data set concerns human PPARα. Also noted: method as in PMID 16038868. The note with it: reporter cell assay; read-out: EC50, activation of transcription through human PPARα; cited from earlier work.
The conditions of data set [2]: for Body weight, Mean ± SD / Liver-somatic index, Mean ± SD: E12; for Body weight / Liver weight / Liver-somatic index: group mean. On the procedure:
as §1, §2
Embryos and livers were weighed and the liver-somatic index was calculated (100 x liver weight/body weight). Livers were collected from the control group and from each of the PFOA groups for determination of PFOA concentrations. These livers were stored at -20°C and later extracted and analyzed as described below. Four females and four males from each PFOA group (except the 1000 μg/egg group) and from the control group were also randomly chosen for evaluation of signs of overt liver toxicity using liver histology (method described in S1 Methods).
The software GraphPad Prism version 5 (GraphPad Software Inc, San Diego, CA, USA) was used for univariate and bivariate statistics. Mortality rates were analyzed with Fisher’s exact test. Body weight, liver-somatic index and concentrations of plasma lipids were initially analyzed using two-way analysis of variance (two-way ANOVA) with treatment and sex (or treatment and replicate) as independent variables. […] Metabolites were selected by multivariate methods as described below and differences in concentrations (treatment groups vs control group as well as females vs males) were then tested using Student’s t-test. The results of these t-tests on metabolite concentrations were used in an exploratory way to find candidate metabolites and for that reason the p-values were not corrected for multiple comparisons.

The subject of data set [3] is chicken embryos. The conditions noted are these: injection before start of incubation; cited from earlier work.
The next data set deals with human PPARγ. Also noted: method as in PMID 16038868. The note with it: reporter cell assay; read-out: EC50, activation of transcription through human PPARγ; cited from earlier work.
Where [4] appears, read: PFOA 1000 μg/egg, five embryos from replicate A.
[5] abbreviates: group PFOA 1000 (1000 µg/egg), five embryos, replicate A only.
[6] abbreviates: group PFOA 50 (µg/egg), group mean.
Setting [7] is: group PFOA 50 (µg/egg), individual embryos.
The mark [8] stands for this setting: group PFOA 250 (µg/egg), group mean.
Where [9] appears, read: group PFOA 250 (µg/egg), individual embryos.

`CC(C)(Sc1ccc(CCN(CCCCC2CCCCC2)C(=O)NC2CCCCC2)cc1)C(=O)O` [GW7647, reference compound]: in the data set with chicken embryos [1] (150 μg/egg), the “HDL-C in plasma, mean ± SD” value is reported as 0.63 ± 0.05 mM; the “LDL-C in plasma, mean ± SD” value stood at 1.5 ± 0.2 mM; the “LDL/HDL in plasma, mean ± SD” value came to 2.4 ± 0.4; the “Total cholesterol in plasma, mean ± SD” value is reported as 5.5 ± 0.3 mM. Further, the “Triacylglycerols in plasma, mean ± SD” value in the data set with chicken embryos [1] (150 μg/egg) amounted to 4.9 ± 0.7 mM. Also, the EC50 in the data set on human PPARα was […].

In the case of `O=C(O)C(F)(F)C(F)(F)C(F)(F)C(F)(F)C(F)(F)C(F)(F)C(F)(F)F` [PFOA, perfluorooctanoic acid], in data set [2] (PFOA 50 μg/egg), the “Body weight, Mean ± SD” value was determined as 4.2 ± 0.5 g and the “Liver-somatic index, Mean ± SD” value is on record as 1.7 ± 0.1%. Besides, in data set [2] (PFOA 250 μg/egg), the “Body weight, Mean ± SD” value is 4.3 ± 0.4 g and the “Liver-somatic index, Mean ± SD” value is 1.7 ± 0.2%. In data set [2] (setting [4]), the “Body weight, Mean ± SD” value amounted to 4.6 ± 0.4 g and the “Liver-somatic index, Mean ± SD” value is reported as 2.0 ± 0.2%. In data set [2] (group PFOA 50 (µg/egg)), this molecule returned a Body weight of 4.2 g, a Liver weight of 70.6 mg and a Liver-somatic index of 1.7%. In data set [2] (group PFOA 250 (µg/egg)), this molecule came in with a Body weight of 4.3 g, a Liver weight of 72.7 mg and a Liver-somatic index of 1.7%. Also, in data set [2] (setting [5]), the Body weight is 4.6 g, the Liver weight is on record as 91.5 mg and the Liver-somatic index came to 2.0%. Moreover, in the data set with chicken embryos [1] (PFOA 50 μg/egg), the “HDL-C in plasma, mean ± SD” value is on record as 0.59 ± 0.06 mM; the “LDL-C in plasma, mean ± SD” value is reported as 1.5 ± 0.2 mM; the “LDL/HDL in plasma, mean ± SD” value is 2.5 ± 0.3; the “Total cholesterol in plasma, mean ± SD” value amounted to 5.2 ± 0.8 mM. The “Triacylglycerols in plasma, mean ± SD” value with chicken embryos [1] (PFOA 50 μg/egg) is recorded as 5.0 ± 0.8 mM. For the same molecule, in the data set on chicken embryos [1] (PFOA 250 μg/egg), the “HDL-C in plasma, mean ± SD” value is on record as 0.57 ± 0.05 mM; the “LDL-C in plasma, mean ± SD” value came to 1.5 ± 0.3 mM; the “LDL/HDL in plasma, mean ± SD” value was determined as 2.6 ± 0.5; the “Total cholesterol in plasma, mean ± SD” value stood at 5.0 ± 0.5 mM. The “Triacylglycerols in plasma, mean ± SD” value in the data set with chicken embryos [1] (PFOA 250 μg/egg) is 5.0 ± 0.7 mM. For the same molecule, in the data set with chicken embryos [1] (setting [6]), the HDL-Cholesterol in plasma is 0.59 mM, the LDL-Cholesterol in plasma was 1.5 mM, the “Total Cholesterol in plasma” value is reported as 5.2 mM and the Triacylglycerols in plasma was found to be 5.0 mM. The LDL/HDL in the data set on chicken embryos [1] (setting [6]) was 2.5. For the same molecule, in the data set on chicken embryos [1] (setting [7]), the HDL-Cholesterol in plasma is 0.63 mM and 0.53 mM and 0.55 mM and 0.69 mM and 0.59 mM and 0.56 mM and 0.65 mM and 0.49 mM and 0.62 mM and 0.64 mM and 0.48 mM and 0.58 mM; the LDL-Cholesterol in plasma is 1.90 mM and 1.20 mM and 1.50 mM and 1.80 mM and 1.40 mM and 1.30 mM and 1.60 mM and 1.00 mM; the “Total Cholesterol in plasma” value is 6 mM and 4.6 mM and 5.1 mM and 5.7 mM and 5.9 mM and 5 mM and 5.4 mM and 6.1 mM and 3.8 mM and 5.3 mM and 4.3 mM and 4.2 mM and 4.1 mM; the Triacylglycerols in plasma is 6 mM and 4.8 mM and 5.1 mM and 5.7 mM and 5 mM and 4.9 mM and 5.4 mM and 4.5 mM and 6.2 mM and 4.2 mM and 3.6 mM and 3.5 mM. Besides, in the data set with chicken embryos [1] (setting [7]), the LDL/HDL was 3.0 and 2.3 and 2.7 and 2.9 and 2.2 and 2.4 and 2.1 and 2.0 and 2.6 and 3.1 and 2.5. Moreover, in the data set on chicken embryos [1] (setting [8]), the HDL-Cholesterol in plasma amounted to 0.57 mM, the LDL-Cholesterol in plasma is given as 1.5 mM, the “Total Cholesterol in plasma” value is 5.0 mM and the Triacylglycerols in plasma is 5.0 mM. Also, the LDL/HDL in the data set on chicken embryos [1] (setting [8]) was 2.6. For the same molecule, in the data set on chicken embryos [1] (setting [9]), the HDL-Cholesterol in plasma was 0.52 mM and 0.54 mM and 0.49 mM and 0.56 mM and 0.55 mM and 0.57 mM and 0.51 mM and 0.64 mM and 0.58 mM and 0.61 mM and 0.63 mM and 0.53 mM and 0.6 mM; the LDL-Cholesterol in plasma is 2.20 mM and 1.40 mM and 1.50 mM and 1.10 mM and 1.20 mM and 1.80 mM and 1.30 mM and 1.70 mM and 1.60 mM; the “Total Cholesterol in plasma” value was 5.2 mM and 4 mM and 4.9 mM and 5.7 mM and 5 mM and 5.4 mM and 4.2 mM and 4.4 mM and 4.7 mM and 5.1 mM; the Triacylglycerols in plasma was 5.1 mM and 5.7 mM and 3.8 mM and 4.5 mM and 6 mM and 4.7 mM and 5.4 mM and 4.8 mM and 4.2 mM and 4.9 mM. The LDL/HDL with chicken embryos [1] (setting [9]) was 4.2 and 2.6 and 2.9 and 2.7 and 2.0 and 2.4 and 2.8 and 2.1 and 1.7 and 2.2. In addition, in the data set on chicken embryos [3], the “Dose at which increased mortality was reported” value was 5 mg/kg egg; the “Doses with lack of effect on hatching success or mortality” value was “up to 10 mg/kg egg”; the “Lowest observed effect level, increased embryo mortality” value is listed as 2 mg/kg egg.

With `CN(CCOc1ccc(CC2SC(=O)NC2=O)cc1)c1ccccn1` (stereo not shown) [Rosiglitazone, rosiglitazone, reference compound], in the data set with human PPARγ, the EC50 is 18 nM. Moreover, in the data set with chicken embryos [1] (150 μg/egg), the “HDL-C in plasma, mean ± SD” value is 0.60 ± 0.06 mM; the “LDL-C in plasma, mean ± SD” value turned out to be 1.5 ± 0.2 mM; the “LDL/HDL in plasma, mean ± SD” value stood at 2.5 ± 0.4; the “Total cholesterol in plasma, mean ± SD” value is reported as 5.2 ± 0.4 mM. In the data set on chicken embryos [1] (150 μg/egg), the “Triacylglycerols in plasma, mean ± SD” value was found to be 5.4 ± 0.8 mM. Moreover, in the data set with chicken embryos [1] (group mean), the HDL-Cholesterol in plasma is 0.60 mM, the LDL-Cholesterol in plasma is recorded as 1.5 mM, the “Total Cholesterol in plasma” value came to 5.2 mM and the Triacylglycerols in plasma turned out to be 5.4 mM. In addition, the LDL/HDL in the data set with chicken embryos [1] (group mean) was found to be 2.5. Further, in the data set on chicken embryos [1] (individual embryos), the HDL-Cholesterol in plasma was 0.65 mM and 0.59 mM and 0.53 mM and 0.58 mM and 0.55 mM and 0.71 mM and 0.6 mM and 0.7 mM and 0.57 mM and 0.51 mM and 0.69 mM and 0.52 mM and 0.61 mM; the LDL-Cholesterol in plasma was 2.00 mM and 1.70 mM and 1.20 mM and 1.50 mM and 1.10 mM and 1.60 mM and 1.40 mM and 1.00 mM and 1.80 mM; the “Total Cholesterol in plasma” value is 5.8 mM and 4.8 mM and 4.1 mM and 5.4 mM and 4.9 mM and 5.5 mM and 5.9 mM and 5.2 mM and 5.3 mM and 5 mM and 5.6 mM; the Triacylglycerols in plasma is 4.5 mM and 4.3 mM and 4.7 mM and 6 mM and 5 mM and 5.3 mM and 5.6 mM and 4.6 mM and 7.1 mM and 6.3 mM and 6.4 mM and 5.5 mM. Moreover, the LDL/HDL in the data set with chicken embryos [1] (individual embryos) was 3.1 and 2.9 and 2.3 and 2.6 and 2.7 and 2.1 and 2.8 and 1.7 and 2.5 and 2.0 and 2.2 and 3.0 and 3.5.

One may read the EC50 as the midpoint of the concentration-response curve.
